Measurements taken from article PMC4232301 (Organic & biomolecular chemistry, 2012).

Target: [KS6AT6] (DEBS module 6 ketosynthase-acyltransferase didomain) (Saccharopolyspora erythraea, UniProt Q03133)
Test: LC-MS of tryptic digest, methylmalonyl transfer to holo-ACP2
Type: biochemical
Details: acyl acceptor purified holo-ACP2; AT domain; 30 min

[KS6AT6] (DEBS module 6 ketosynthase-acyltransferase didomain), sequence (Q03133 1475-2340 limits assumed): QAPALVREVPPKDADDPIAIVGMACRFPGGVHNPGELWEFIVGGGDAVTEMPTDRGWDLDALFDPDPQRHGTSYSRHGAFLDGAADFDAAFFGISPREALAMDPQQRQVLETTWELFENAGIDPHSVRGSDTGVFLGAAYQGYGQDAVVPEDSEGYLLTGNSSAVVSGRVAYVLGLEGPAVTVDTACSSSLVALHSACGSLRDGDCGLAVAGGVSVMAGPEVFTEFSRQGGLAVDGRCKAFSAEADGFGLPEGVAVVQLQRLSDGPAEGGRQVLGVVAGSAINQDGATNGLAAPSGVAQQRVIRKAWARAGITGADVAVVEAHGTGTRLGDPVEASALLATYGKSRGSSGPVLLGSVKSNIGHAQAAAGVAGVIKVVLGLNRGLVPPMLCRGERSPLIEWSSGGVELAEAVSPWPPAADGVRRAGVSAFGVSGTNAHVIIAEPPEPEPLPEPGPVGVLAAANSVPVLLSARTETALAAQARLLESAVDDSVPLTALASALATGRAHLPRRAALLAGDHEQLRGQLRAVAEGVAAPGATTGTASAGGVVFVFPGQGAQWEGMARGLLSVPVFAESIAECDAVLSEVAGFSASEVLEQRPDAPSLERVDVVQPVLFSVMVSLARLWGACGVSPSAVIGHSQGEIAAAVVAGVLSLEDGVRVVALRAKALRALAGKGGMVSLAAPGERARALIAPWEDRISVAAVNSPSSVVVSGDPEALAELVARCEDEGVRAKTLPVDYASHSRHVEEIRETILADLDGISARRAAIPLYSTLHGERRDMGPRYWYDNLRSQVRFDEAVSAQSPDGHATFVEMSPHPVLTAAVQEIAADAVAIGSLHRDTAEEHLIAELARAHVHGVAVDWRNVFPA

CC(C(=O)O)C(=O)SCCNC(=O)CCNC(=O)[C@H](O)C(C)(C)COP(=O)(O)OP(=O)(O)OC[C@H]1O[C@@H](n2cnc3c(N)ncnc32)[C@H](O)[C@@H]1OP(=O)(O)O (stereo partly shown) [methylmalonyl-CoA]
LC-MS of tryptic digest, methylmalonyl transfer to holo-ACP2: purified ACP remains competent for AT-ACP methylmalonate transfer
